Measured values: the supplement of paper PMC8671470

Tested on: MV4-11
Test: cell viability (% survival relative to DMSO control, bortezomib = 0%); higher = less cytotoxic
Settings: 1000 nM; 72 h
In short: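 In 384-well plates pre-printed with compounds at 1, 10, 100, 1000 or 10000 nM, duplicate wells received cells from 10 AML and 5 CML lines at densities within the linear growth range. The plates stayed at 37 °C with 5% CO2 for 72 h before CellTiter-Glo luminescence was recorded. Each entry is averaged percent survival. Scaling placed vehicle at 100% and a 10 µM positive control at 0%.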

Compound	cell viability [%]
COc1cc(/C=C/C(=O)N2CCC=CC2=O)cc(OC)c1OC [Piperlongumine]	44.4
CC[C@@]1(O)C(=O)OCc2c1cc1n(c2=O)Cc2cc3c(CN(C)C)c(O)ccc3nc2-1 [Topotecan]	2.09

Same assay, conditions: 10000 nM; 72 h

Compound	cell viability [%]
O=C1O/C(=C/Br)CCC1c1cccc2ccccc12 (stereo not drawn) [Bromoenol Lactone]	45.8
N#CC(C#N)=NNc1ccc(OC(F)(F)F)cc1 [FCCP]	-1.01
O=C(O)Cn1nnc(-c2cc(N3CCC(Oc4cc(F)ccc4Br)CC3)no2)n1 [MK-8245]	94.2
C=C(C=NNC(=N)N)NNC(=N)N [Mitoguazone]	10.4
COc1cc(/C=C/C(=O)N2CCC=CC2=O)cc(OC)c1OC [Piperlongumine]	-0.271
CC[C@@]1(O)C(=O)OCc2c1cc1n(c2=O)Cc2cc3c(CN(C)C)c(O)ccc3nc2-1 [Topotecan]	-0.156

Tested on: myeloid leukemia patient primary cells Pat.2
Test: area under dose-response curve (viability, 1 nM-10 uM) (fraction (0-1)); higher = more sensitive
Settings: 72 h
Protocol: (§1)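 AUC (0–1, higher = more sensitive) of the 5-point dose–response (1 nM–10 µM, 72 h, CellTiter-Glo) in primary AML/CML patient mononuclear cells. 0.030103 is the floor for inactive compounds.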

Compound	area under dose-response curve
O=C1O/C(=C/Br)CCC1c1cccc2ccccc12 (stereo not drawn) [Bromoenol Lactone]	0.0768
N#CC(C#N)=NNc1ccc(OC(F)(F)F)cc1 [FCCP]	0.0623
O=C(O)Cn1nnc(-c2cc(N3CCC(Oc4cc(F)ccc4Br)CC3)no2)n1 [MK-8245]	< 0.0301
C=C(C=NNC(=N)N)NNC(=N)N [Mitoguazone]	< 0.0301
COc1cc(/C=C/C(=O)N2CCC=CC2=O)cc(OC)c1OC [Piperlongumine]	0.125
CC[C@@]1(O)C(=O)OCc2c1cc1n(c2=O)Cc2cc3c(CN(C)C)c(O)ccc3nc2-1 [Topotecan]	0.127

Tested on: myeloid leukemia patient primary cells Pat.5
Test: as above
Settings: 72 h
Protocol: as §1

Compound	area under dose-response curve
O=C1O/C(=C/Br)CCC1c1cccc2ccccc12 (stereo not drawn) [Bromoenol Lactone]	0.828
N#CC(C#N)=NNc1ccc(OC(F)(F)F)cc1 [FCCP]	0.825
O=C(O)Cn1nnc(-c2cc(N3CCC(Oc4cc(F)ccc4Br)CC3)no2)n1 [MK-8245]	0.0448
C=C(C=NNC(=N)N)NNC(=N)N [Mitoguazone]	0.715
COc1cc(/C=C/C(=O)N2CCC=CC2=O)cc(OC)c1OC [Piperlongumine]	0.585
CC[C@@]1(O)C(=O)OCc2c1cc1n(c2=O)Cc2cc3c(CN(C)C)c(O)ccc3nc2-1 [Topotecan]	0.426

Tested on: myeloid leukemia patient primary cells Pat.14
Test: as above
Settings: 72 h
Protocol: as §1

Compound	area under dose-response curve
O=C1O/C(=C/Br)CCC1c1cccc2ccccc12 (stereo not drawn) [Bromoenol Lactone]	0.324
N#CC(C#N)=NNc1ccc(OC(F)(F)F)cc1 [FCCP]	0.316
O=C(O)Cn1nnc(-c2cc(N3CCC(Oc4cc(F)ccc4Br)CC3)no2)n1 [MK-8245]	< 0.0301
C=C(C=NNC(=N)N)NNC(=N)N [Mitoguazone]	0.604
COc1cc(/C=C/C(=O)N2CCC=CC2=O)cc(OC)c1OC [Piperlongumine]	0.244
CC[C@@]1(O)C(=O)OCc2c1cc1n(c2=O)Cc2cc3c(CN(C)C)c(O)ccc3nc2-1 [Topotecan]	0.231

Tested on: myeloid leukemia patient primary cells Pat.1
Test: as above
Settings: 72 h
Protocol: as §1

Compound	area under dose-response curve
O=C1O/C(=C/Br)CCC1c1cccc2ccccc12 (stereo not drawn) [Bromoenol Lactone]	0.135
N#CC(C#N)=NNc1ccc(OC(F)(F)F)cc1 [FCCP]	0.214
O=C(O)Cn1nnc(-c2cc(N3CCC(Oc4cc(F)ccc4Br)CC3)no2)n1 [MK-8245]	< 0.0301
C=C(C=NNC(=N)N)NNC(=N)N [Mitoguazone]	< 0.0301
COc1cc(/C=C/C(=O)N2CCC=CC2=O)cc(OC)c1OC [Piperlongumine]	0.143
CC[C@@]1(O)C(=O)OCc2c1cc1n(c2=O)Cc2cc3c(CN(C)C)c(O)ccc3nc2-1 [Topotecan]	0.0609

Tested on: myeloid leukemia patient primary cells Pat.3
Test: as above
Settings: 72 h
Protocol: as §1

Compound	area under dose-response curve
O=C1O/C(=C/Br)CCC1c1cccc2ccccc12 (stereo not drawn) [Bromoenol Lactone]	0.447
N#CC(C#N)=NNc1ccc(OC(F)(F)F)cc1 [FCCP]	0.361
O=C(O)Cn1nnc(-c2cc(N3CCC(Oc4cc(F)ccc4Br)CC3)no2)n1 [MK-8245]	0.0756
C=C(C=NNC(=N)N)NNC(=N)N [Mitoguazone]	0.412
COc1cc(/C=C/C(=O)N2CCC=CC2=O)cc(OC)c1OC [Piperlongumine]	0.219
CC[C@@]1(O)C(=O)OCc2c1cc1n(c2=O)Cc2cc3c(CN(C)C)c(O)ccc3nc2-1 [Topotecan]	0.54

Tested on: myeloid leukemia patient primary cells Pat.8
Test: as above
Settings: 72 h
Protocol: as §1

Compound	area under dose-response curve
O=C1O/C(=C/Br)CCC1c1cccc2ccccc12 (stereo not drawn) [Bromoenol Lactone]	0.0529
N#CC(C#N)=NNc1ccc(OC(F)(F)F)cc1 [FCCP]	0.116
O=C(O)Cn1nnc(-c2cc(N3CCC(Oc4cc(F)ccc4Br)CC3)no2)n1 [MK-8245]	< 0.0301
C=C(C=NNC(=N)N)NNC(=N)N [Mitoguazone]	< 0.0301
COc1cc(/C=C/C(=O)N2CCC=CC2=O)cc(OC)c1OC [Piperlongumine]	0.144
CC[C@@]1(O)C(=O)OCc2c1cc1n(c2=O)Cc2cc3c(CN(C)C)c(O)ccc3nc2-1 [Topotecan]	0.0586

Tested on: myeloid leukemia patient primary cells Pat.9
Test: as above
Settings: 72 h
Protocol: as §1

Compound	area under dose-response curve
O=C1O/C(=C/Br)CCC1c1cccc2ccccc12 (stereo not drawn) [Bromoenol Lactone]	0.651
N#CC(C#N)=NNc1ccc(OC(F)(F)F)cc1 [FCCP]	0.361
O=C(O)Cn1nnc(-c2cc(N3CCC(Oc4cc(F)ccc4Br)CC3)no2)n1 [MK-8245]	< 0.0301
C=C(C=NNC(=N)N)NNC(=N)N [Mitoguazone]	0.6
COc1cc(/C=C/C(=O)N2CCC=CC2=O)cc(OC)c1OC [Piperlongumine]	0.505
CC[C@@]1(O)C(=O)OCc2c1cc1n(c2=O)Cc2cc3c(CN(C)C)c(O)ccc3nc2-1 [Topotecan]	0.245

Tested on: myeloid leukemia patient primary cells Pat.7
Test: as above
Settings: 72 h
Protocol: as §1

Compound	area under dose-response curve
O=C1O/C(=C/Br)CCC1c1cccc2ccccc12 (stereo not drawn) [Bromoenol Lactone]	0.287
N#CC(C#N)=NNc1ccc(OC(F)(F)F)cc1 [FCCP]	0.366
O=C(O)Cn1nnc(-c2cc(N3CCC(Oc4cc(F)ccc4Br)CC3)no2)n1 [MK-8245]	< 0.0301
C=C(C=NNC(=N)N)NNC(=N)N [Mitoguazone]	0.528
COc1cc(/C=C/C(=O)N2CCC=CC2=O)cc(OC)c1OC [Piperlongumine]	0.0802
CC[C@@]1(O)C(=O)OCc2c1cc1n(c2=O)Cc2cc3c(CN(C)C)c(O)ccc3nc2-1 [Topotecan]	0.282

Tested on: myeloid leukemia patient primary cells Pat.4
Test: as above
Settings: 72 h
Protocol: as §1

Compound	area under dose-response curve
O=C1O/C(=C/Br)CCC1c1cccc2ccccc12 (stereo not drawn) [Bromoenol Lactone]	0.213
N#CC(C#N)=NNc1ccc(OC(F)(F)F)cc1 [FCCP]	0.229
O=C(O)Cn1nnc(-c2cc(N3CCC(Oc4cc(F)ccc4Br)CC3)no2)n1 [MK-8245]	< 0.0301
C=C(C=NNC(=N)N)NNC(=N)N [Mitoguazone]	0.0342
COc1cc(/C=C/C(=O)N2CCC=CC2=O)cc(OC)c1OC [Piperlongumine]	0.21
CC[C@@]1(O)C(=O)OCc2c1cc1n(c2=O)Cc2cc3c(CN(C)C)c(O)ccc3nc2-1 [Topotecan]	0.132

Tested on: myeloid leukemia patient primary cells Pat.11
Test: as above
Settings: 72 h
Protocol: as §1

Compound	area under dose-response curve
O=C1O/C(=C/Br)CCC1c1cccc2ccccc12 (stereo not drawn) [Bromoenol Lactone]	0.0656
N#CC(C#N)=NNc1ccc(OC(F)(F)F)cc1 [FCCP]	0.158
O=C(O)Cn1nnc(-c2cc(N3CCC(Oc4cc(F)ccc4Br)CC3)no2)n1 [MK-8245]	< 0.0301
C=C(C=NNC(=N)N)NNC(=N)N [Mitoguazone]	< 0.0301
COc1cc(/C=C/C(=O)N2CCC=CC2=O)cc(OC)c1OC [Piperlongumine]	0.121
CC[C@@]1(O)C(=O)OCc2c1cc1n(c2=O)Cc2cc3c(CN(C)C)c(O)ccc3nc2-1 [Topotecan]	0.0826

Tested on: myeloid leukemia patient primary cells Pat.6
Test: as above
Settings: 72 h
Protocol: as §1

Compound	area under dose-response curve
O=C1O/C(=C/Br)CCC1c1cccc2ccccc12 (stereo not drawn) [Bromoenol Lactone]	0.0918
N#CC(C#N)=NNc1ccc(OC(F)(F)F)cc1 [FCCP]	0.175
O=C(O)Cn1nnc(-c2cc(N3CCC(Oc4cc(F)ccc4Br)CC3)no2)n1 [MK-8245]	< 0.0301
C=C(C=NNC(=N)N)NNC(=N)N [Mitoguazone]	0.484
COc1cc(/C=C/C(=O)N2CCC=CC2=O)cc(OC)c1OC [Piperlongumine]	0.116
CC[C@@]1(O)C(=O)OCc2c1cc1n(c2=O)Cc2cc3c(CN(C)C)c(O)ccc3nc2-1 [Topotecan]	0.147

Tested on: myeloid leukemia patient primary cells Pat.12
Test: as above
Settings: 72 h
Protocol: as §1

Compound	area under dose-response curve
O=C1O/C(=C/Br)CCC1c1cccc2ccccc12 (stereo not drawn) [Bromoenol Lactone]	0.084
N#CC(C#N)=NNc1ccc(OC(F)(F)F)cc1 [FCCP]	0.0898
O=C(O)Cn1nnc(-c2cc(N3CCC(Oc4cc(F)ccc4Br)CC3)no2)n1 [MK-8245]	< 0.0301
C=C(C=NNC(=N)N)NNC(=N)N [Mitoguazone]	< 0.0301
COc1cc(/C=C/C(=O)N2CCC=CC2=O)cc(OC)c1OC [Piperlongumine]	0.162
CC[C@@]1(O)C(=O)OCc2c1cc1n(c2=O)Cc2cc3c(CN(C)C)c(O)ccc3nc2-1 [Topotecan]	0.0406

Tested on: myeloid leukemia patient primary cells Pat.10
Test: as above
Settings: 72 h
Protocol: as §1

Compound	area under dose-response curve
O=C1O/C(=C/Br)CCC1c1cccc2ccccc12 (stereo not drawn) [Bromoenol Lactone]	0.515
N#CC(C#N)=NNc1ccc(OC(F)(F)F)cc1 [FCCP]	0.466
O=C(O)Cn1nnc(-c2cc(N3CCC(Oc4cc(F)ccc4Br)CC3)no2)n1 [MK-8245]	0.205
C=C(C=NNC(=N)N)NNC(=N)N [Mitoguazone]	0.574
COc1cc(/C=C/C(=O)N2CCC=CC2=O)cc(OC)c1OC [Piperlongumine]	< 0.0301
CC[C@@]1(O)C(=O)OCc2c1cc1n(c2=O)Cc2cc3c(CN(C)C)c(O)ccc3nc2-1 [Topotecan]	0.507

Tested on: myeloid leukemia patient primary cells Pat.13
Test: as above
Settings: 72 h
Protocol: as §1

Compound	area under dose-response curve
O=C1O/C(=C/Br)CCC1c1cccc2ccccc12 (stereo not drawn) [Bromoenol Lactone]	0.0877
N#CC(C#N)=NNc1ccc(OC(F)(F)F)cc1 [FCCP]	0.211
O=C(O)Cn1nnc(-c2cc(N3CCC(Oc4cc(F)ccc4Br)CC3)no2)n1 [MK-8245]	< 0.0301
C=C(C=NNC(=N)N)NNC(=N)N [Mitoguazone]	< 0.0301
COc1cc(/C=C/C(=O)N2CCC=CC2=O)cc(OC)c1OC [Piperlongumine]	0.149
CC[C@@]1(O)C(=O)OCc2c1cc1n(c2=O)Cc2cc3c(CN(C)C)c(O)ccc3nc2-1 [Topotecan]	0.0753

Tested on: myeloid leukemia patient primary cells Pat.15
Test: as above
Settings: 72 h
Protocol: as §1

Compound	area under dose-response curve
O=C1O/C(=C/Br)CCC1c1cccc2ccccc12 (stereo not drawn) [Bromoenol Lactone]	0.132
N#CC(C#N)=NNc1ccc(OC(F)(F)F)cc1 [FCCP]	0.159
O=C(O)Cn1nnc(-c2cc(N3CCC(Oc4cc(F)ccc4Br)CC3)no2)n1 [MK-8245]	< 0.0301
C=C(C=NNC(=N)N)NNC(=N)N [Mitoguazone]	0.161
COc1cc(/C=C/C(=O)N2CCC=CC2=O)cc(OC)c1OC [Piperlongumine]	0.191
CC[C@@]1(O)C(=O)OCc2c1cc1n(c2=O)Cc2cc3c(CN(C)C)c(O)ccc3nc2-1 [Topotecan]	0.225
